Data from patent US20160015670A1, “COMPOUND, 1-PALMITIN-2-LINOLEIN-3-OLEIN, AND PHARMACEUTICAL PREPARATION AND USE THEREOF” (priority 2014, published 2016).
Converted amounts (≈) assume the structure as drawn.

Tests used:
Test in all cases: MTT method in vitro, inhibition of cell growth
Type in all cases: cell-based
[1] = system: BGC-823 (human gastric cancer cells); conditions: BGC-823, MTT, 48 h
From the text: (§1) (1) Cell lines: PANC-1 (human pancreatic cancer cells), SKOV3 (human ovarian cancer cells), MCF-7 (human breast cancer cells), SMMC-7721 (human liver cancer cells), A549 (human lung cancer cells), BGC-823 (human gastric cancer cells), COLO205 (human colonic cancer cells), storaged and passaged maintainably in Research and Evaluation Center for Pharmacology, Shanghai Institute of Pharmaceutical Industry;
(§2) The inhibition effects of the compound of formula (I) on the above-mentioned cell lines were detected by using MTT method. The specific procedures were as follows:
(§3) (1) Cell culture: (a) Storaged cells were taken out from the liquid nitrogen, thawed quickly in a 37 water bath, then aseptically transferred into 6 ml of cellular medium in a 10 ml centrifugal tube, centrifuged at 1000 rpm for 5 min. The supernatant was discarded, then the precipitated cells were re-suspended in 5-6 ml cellular media by pipetting and transferred into a flask in a 37 incubator for cell culture; (b) Next day, the flask was taken out from the incubator and the used medium was discarded, then the cells were incubated in 5-6 ml fresh medium in the 37 incubator; (c) On the third day, the flask was taken out from the incubator and the used medium was discarded, then 2-3 ml of PBS (pH7.4) was added into the flask with rocking for cleaning it and the used PBS was discarded. Such a cellular cleaning step was repeated once again. 3-5 drops of 0.25% trypsin solution were added into the flask with sloshing, thus well-distributed in it. The flask was capped and placed in a 37 incubator for about 3 min, and the separation of cells from the flask wall was observed under the microscope. 2 ml of cellular medium was added and cells were separated completely from the flask wall by pipetting, then the cell suspension was transferred into 2 separate clean flasks, each containing 5-6 ml medium. The cell suspension was well-distributed by pipetting, then the flask was placed in a 37 incubator. (d) Step (c) was repeated every other day. […]
(§4) (4) Cells in a logarithmic growth stage were trypsinized and washed, then re-suspended in the medium containing 10% calf serum. The number of living cells was counted in Trypan blue dye exclusion method and cell suspensions were adjusted into a density of 2×10^5 cell/ml. […]
(§5) (7) 100 μl of crystal dissolving solution was added into each well and cells were incubated continuously in the incubator overnight, so as to dissolve the resulted formazan crystals sufficiently. Then, the absorbance value was measured at 570 nm for each well.
(§6) (8) Based on absorbance values, inhibition rates on the cell growth were calculated for sample groups of various concentrations. […]
(§7) (1−mean absorbance of experimental wells/mean absorbance of control wells)×100%

[2] = system: COLO205 (human colonic cancer cells); conditions: COLO 205, 48 h
From the text: as §1, §2, §3, §4, §5, §6, §7

[3] = system: PANC-1 (human pancreatic cancer cells); conditions: PANC-1, MTT, 48 h
From the text: as §1, §2, §3, §4, §5, §6, §7

[4] = system: SMMC-7721 (human liver cancer cells); conditions: SMMC-7721, MTT, 48 h
From the text: as §1, §2, §3, §4, §5, §6, §7

- IC50 [1]: 0.24 µg/mL (≈ 0.281 µM)
- IC50 [2]: 0.75 µg/mL (≈ 0.878 µM)
- IC50 [3]: 0.44 µg/mL (≈ 0.515 µM)
- IC50 [4]: 0.12 µg/mL (≈ 0.141 µM)
Structure (SMILES): CC(=O)O[C@H]1C(=O)[C@@]2(C)[C@H]([C@H](OC(=O)c3ccccc3)[C@]3(O)C[C@H](OC(=O)[C@H](O)[C@@H](NC(=O)c4ccccc4)c4ccccc4)C(C)=C1C3(C)C)[C@]1(OC(C)=O)CO[C@@H]1C[C@@H]2O [Taxol, reference compound]
